The results in this text go back to PMC9530166, “Allosteric regulation of glycogen breakdown by the second messenger cyclic di-GMP” (Nature Communications, 2022).

One experiment has as its target GlgX (Streptomyces venezuelae, UniProt F2RAW5). Description: Fluorescence polarization (FP) binding, wild-type GlgX. Particulars: summary value of FP (Fig. 5c) and MST (Supplementary Fig. 8); read-out: affinity of GlgX for c-di-GMP. The text has this:
(§1) Fig. 5 Structure of the S. venezuelae GlgX-c-di-GMP complex. a Ribbon diagram of the S. venezuelae GlgX-c-di-GMP complex with one GlgX subunit colored cyan and the other salmon. Shown as sticks are the c-di-GMP molecules bound at each end of the antiparallel dimer. […] There was clear density for each c-di-GMP molecule. b Close up of the GlgX-c-di-GMP binding interaction. Key residues mediating contacts to the c-di-GMP are shown as sticks and labeled. Hydrogen bonds from GlgX residues that specify binding to the guanine are indicated by yellow dashed lines. c Fluorescence polarization (FP) binding isotherm showing interaction of GlgX, GlgXE47A-R49A and GlgXR438A-R579A for F-c-di-GMP in red, green and blue respectively. Also shown is the binding isotherm for GlgX binding to F-c-di-AMP in black. […] The y-axis and x-axis are millipolarization (mP) units and GlgX concentration (μM), respectively. Shown are representative binding curves for each. The experiments were performed in technical triplicates and the error between measurements reported. Error bars represent SD of the measurements. Source data are provided in the Source data file.
Thus, we used this F-tagged c-di-GMP in fluorescence polarization (FP) studies to quantify the interaction between GlgX and c-di-GMP. […] To ensure that the presence of the fluorescent tag was not impacting the GlgX interaction with c-di-GMP we used microscale thermophoresis (MST) to quantify c-di-GMP binding to GlgX. […] But to further probe the structural model we created GlgXE47A-R49A and GlgXR438A-R579A mutants and performed FP studies with these proteins.
To measure c-di-GMP binding to GlgX and GlgX mutants, 2′-O-(6-[Fluoresceinyl]aminohexylcarbamoyl)-cyclic diguanosine monophosphate (2′-Fluo-AHC-c-di-GMP) (BioLog), was used as a fluoresceinated reporter ligand. This molecule is conjugated via a nine atom spacer to one of the c-di-GMP 2′ hydroxyl groups. […] 2′-O-(6-[Fluoresceinyl]aminohexylcarbamoyl)-cyclic diadenosine monophosphate (2′-Fluo-AHC-c-di-AMP) (BioLog) was also used in binding studies to assess specificity of GlgX for c-di-GMP. […]

A further experiment relates to GlgXR438A-R579A. Description: Fluorescence polarization binding, GlgXR438A-R579A. Further details: species or system Streptomyces venezuelae.
Description: as §1, with “Error bars represent SD of the measurements. Source data are provided in the Source data file.” left out
Thus, we used this F-tagged c-di-GMP in fluorescence polarization (FP) studies to quantify the interaction between GlgX and c-di-GMP. […] To ensure that the presence of the fluorescent tag was not impacting the GlgX interaction with c-di-GMP we used microscale thermophoresis (MST) to quantify c-di-GMP binding to GlgX. […]

The next experiment relates to His6-GlgXDETR(49-52). Description: DRaCALA with [32P]-c-di-GMP, RETD49-52 swap mutant. Particulars: His6-GlgXDETR(49-52) mutant. Type of experiment: binding, Streptomyces venezuelae. The method, then: For DRaCALA assays, purified His6-GlgX (15 μg) was mixed with 0.5 μl undiluted [^32P]-c-di-GMP (42 nM) (Hartmann Analytic GmbH, Braunschweig) in binding buffer (25 mM Tris pH 8; 150 mM NaCl; 2.5% (v/v) glycerol; 5 mM MgCl2) and the reaction was incubated at rt for 5 min. For competition assays, 100 μM nonlabeled nucleotides were added to the samples and incubated at rt for 5 min prior to the addition of [^32P]-c-di-GMP. Reactions (10 μl) were spotted on the same nitrocellulose membrane (Roth), air dried for 10 min and analyzed via phosphorimaging.
217 Supplementary Fig. 5: NanoDSF assays with mutagenized His6-GlgX variants. (a) Swap of the
219 This was confirmed by DRaCALA, right. For DRaCALA assays, 15 µg of purified E. coli His6-GlgX
220 or His6-Vnz25270, respectively, were mixed with 0.5 µl of [32P]-c-di-GMP (Hartmann Analytic
221 GmbH, Braunschweig) in binding buffer (25 mM Tris pH 8.0, 150 mM NaCl, 2.5% (v/v) glycerol
222 and 5 mM MgCl2). 10 µl of the reactions were spotted on the same nitrocellulose membrane (Roth),
223 air dried for 10 min and analyzed by phosphorimaging. (b) Changing the RLVD motif (amino acids
(1 picture or pasted object on this page, not shown here)

Sequence of GlgX (F2RAW5 entry or part of it): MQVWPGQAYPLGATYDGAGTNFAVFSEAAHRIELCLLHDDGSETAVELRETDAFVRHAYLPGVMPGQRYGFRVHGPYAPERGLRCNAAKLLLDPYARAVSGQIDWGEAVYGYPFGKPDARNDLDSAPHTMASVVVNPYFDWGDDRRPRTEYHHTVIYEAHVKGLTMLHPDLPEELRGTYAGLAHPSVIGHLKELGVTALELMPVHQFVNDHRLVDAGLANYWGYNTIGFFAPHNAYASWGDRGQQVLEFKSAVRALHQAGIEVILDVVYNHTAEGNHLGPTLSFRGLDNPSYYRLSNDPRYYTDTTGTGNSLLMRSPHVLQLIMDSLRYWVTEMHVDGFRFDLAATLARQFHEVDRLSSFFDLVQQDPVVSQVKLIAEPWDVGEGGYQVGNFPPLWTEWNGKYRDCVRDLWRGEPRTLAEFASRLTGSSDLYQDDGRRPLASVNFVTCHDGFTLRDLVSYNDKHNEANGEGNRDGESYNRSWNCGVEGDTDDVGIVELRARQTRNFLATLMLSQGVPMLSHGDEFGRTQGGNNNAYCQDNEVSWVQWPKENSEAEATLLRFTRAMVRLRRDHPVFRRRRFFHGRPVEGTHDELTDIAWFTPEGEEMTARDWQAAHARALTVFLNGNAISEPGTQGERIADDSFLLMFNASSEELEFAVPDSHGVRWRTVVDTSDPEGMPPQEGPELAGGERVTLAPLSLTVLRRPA

As for `Nc1nc2c(ncn2[C@@H]2O[C@@H]3CO[P@](=O)(O)O[C@H]4[C@@H](O)[C@H](n5cnc6c(=O)[nH]c(N)nc65)O[C@@H]4CO[P@](=O)(O)O[C@H]3[C@H]2O)c(=O)[nH]1` [c-di-GMP, bis-(3′−5′)-cyclic diguanosine monophosphate], the Kd at GlgX was about 8 µM. The “binding to mutant in FP” value with GlgXR438A-R579A is reported as “weak, nonsaturable binding”. Also, the “binding of c-di-GMP in DRaCALA” value with His6-GlgXDETR(49-52) is recorded as “does not bind c-di-GMP”.
